In PubChem BioAssay AID651981 (The Scripps Research Institute Molecular Screening Center, 2013):
Active and inactive are the calls of the source. How the calls were made is not given here.

How the values were obtained:
Test in all cases: PubChem AID 651981
AADACL1 = conditions: BW5147 mouse T-cell proteome, ABPP-SILAC LC-MS ratio, at 1 µM, active compounds read low
ABHD12 = conditions: BW5147 mouse T-cell proteome, ABPP-SILAC LC-MS ratio, at 1 µM, active compounds read low
ACOT1 = conditions: BW5147 mouse T-cell proteome, ABPP-SILAC LC-MS ratio, at 1 µM, active compounds read low
ACOT2 = conditions: BW5147 mouse T-cell proteome, ABPP-SILAC LC-MS ratio, at 1 µM, active compounds read low
APEH = conditions: BW5147 mouse T-cell proteome, ABPP-SILAC LC-MS ratio, at 1 µM, active compounds read low
[1] = target: Acyl-protein thioesterase 1 (Mus musculus) (UniProt P97823); conditions: BW5147 mouse T-cell proteome, ABPP-SILAC LC-MS ratio; LYPLA1; at 1 µM; active compounds read low
DPP4 = conditions: BW5147 mouse T-cell proteome, ABPP-SILAC LC-MS ratio, at 1 µM, active compounds read low
DPP8 = conditions: BW5147 mouse T-cell proteome, ABPP-SILAC LC-MS ratio, at 1 µM, active compounds read low
DPP9 = conditions: BW5147 mouse T-cell proteome, ABPP-SILAC LC-MS ratio, at 1 µM, active compounds read low
ESD = conditions: BW5147 mouse T-cell proteome, ABPP-SILAC LC-MS ratio, at 1 µM, active compounds read low
FAAH = conditions: BW5147 mouse T-cell proteome, ABPP-SILAC LC-MS ratio, at 1 µM, active compounds read low
FASN = conditions: BW5147 mouse T-cell proteome, ABPP-SILAC LC-MS ratio, at 1 µM, active compounds read low
LIPE = conditions: BW5147 mouse T-cell proteome, ABPP-SILAC LC-MS ratio, at 1 µM, active compounds read low
LYPLA2 = conditions: BW5147 mouse T-cell proteome, ABPP-SILAC LC-MS ratio, at 1 µM, active compounds read low
[2] = target: Monoacylglycerol lipase ABHD6 (Mus musculus) (UniProt Q8R2Y0); conditions: BW5147 mouse T-cell proteome, ABPP-SILAC LC-MS ratio, at 1 µM, active compounds read low
PAFAH1B2 = conditions: BW5147 mouse T-cell proteome, ABPP-SILAC LC-MS ratio, at 1 µM, active compounds read low
PAFAH1B3 = conditions: BW5147 mouse T-cell proteome, ABPP-SILAC LC-MS ratio, at 1 µM, active compounds read low
PNPLA6 = conditions: BW5147 mouse T-cell proteome, ABPP-SILAC LC-MS ratio, at 1 µM, active compounds read low
PNPLA7 = conditions: BW5147 mouse T-cell proteome, ABPP-SILAC LC-MS ratio, at 1 µM, active compounds read low
PPME1 = conditions: BW5147 mouse T-cell proteome, ABPP-SILAC LC-MS ratio, at 1 µM, active compounds read low
PRCP = conditions: BW5147 mouse T-cell proteome, ABPP-SILAC LC-MS ratio, at 1 µM, active compounds read low
[3] = target: Platelet-activating factor acetylhydrolase 2, cytoplasmic (Mus musculus) (UniProt Q8VDG7); conditions: BW5147 mouse T-cell proteome, ABPP-SILAC LC-MS ratio; PAFAH2; at 1 µM; active compounds read low
[4] = target: Prolyl endopeptidase (Mus musculus) (UniProt Q9QUR6); conditions: BW5147 mouse T-cell proteome, ABPP-SILAC LC-MS ratio; PREP; at 1 µM; active compounds read low
SEC23IP = conditions: BW5147 mouse T-cell proteome, ABPP-SILAC LC-MS ratio, at 1 µM, active compounds read low
TPP2 = conditions: BW5147 mouse T-cell proteome, ABPP-SILAC LC-MS ratio, at 1 µM, active compounds read low

Sequence of Prolyl endopeptidase (Mus musculus) (Q9QUR6 whole entry, looked up): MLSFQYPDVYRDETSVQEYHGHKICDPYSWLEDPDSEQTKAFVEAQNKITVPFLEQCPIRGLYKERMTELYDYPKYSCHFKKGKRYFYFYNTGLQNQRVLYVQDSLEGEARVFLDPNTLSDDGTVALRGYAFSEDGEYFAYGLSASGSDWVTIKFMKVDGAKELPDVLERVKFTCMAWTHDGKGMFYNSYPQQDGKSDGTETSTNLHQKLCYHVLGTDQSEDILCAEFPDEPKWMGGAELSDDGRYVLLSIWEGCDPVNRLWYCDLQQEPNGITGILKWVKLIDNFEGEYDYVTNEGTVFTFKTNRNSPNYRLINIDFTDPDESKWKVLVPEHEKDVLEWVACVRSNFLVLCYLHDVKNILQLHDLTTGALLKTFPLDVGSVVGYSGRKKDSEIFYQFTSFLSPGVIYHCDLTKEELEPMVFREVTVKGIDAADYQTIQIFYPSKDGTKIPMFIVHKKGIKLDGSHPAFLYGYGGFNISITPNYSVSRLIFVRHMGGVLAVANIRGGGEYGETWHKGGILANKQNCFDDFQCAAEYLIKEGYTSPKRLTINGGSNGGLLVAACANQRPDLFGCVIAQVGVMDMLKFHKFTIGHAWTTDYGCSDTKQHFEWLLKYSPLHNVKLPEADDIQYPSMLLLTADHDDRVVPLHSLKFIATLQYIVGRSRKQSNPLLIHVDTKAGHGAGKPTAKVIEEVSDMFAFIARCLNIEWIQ
Sequence of Monoacylglycerol lipase ABHD6 (Mus musculus) (Q8R2Y0 whole entry, looked up): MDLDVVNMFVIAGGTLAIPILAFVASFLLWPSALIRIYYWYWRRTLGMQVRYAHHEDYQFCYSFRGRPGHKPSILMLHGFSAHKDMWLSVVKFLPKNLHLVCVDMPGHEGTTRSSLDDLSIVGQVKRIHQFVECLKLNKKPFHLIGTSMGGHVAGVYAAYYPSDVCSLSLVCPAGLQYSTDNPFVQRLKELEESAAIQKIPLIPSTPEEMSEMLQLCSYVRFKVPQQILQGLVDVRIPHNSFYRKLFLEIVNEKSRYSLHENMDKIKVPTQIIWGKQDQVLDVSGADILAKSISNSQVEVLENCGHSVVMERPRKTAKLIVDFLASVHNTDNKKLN
Sequence of Acyl-protein thioesterase 1 (Mus musculus) (P97823 whole entry, looked up): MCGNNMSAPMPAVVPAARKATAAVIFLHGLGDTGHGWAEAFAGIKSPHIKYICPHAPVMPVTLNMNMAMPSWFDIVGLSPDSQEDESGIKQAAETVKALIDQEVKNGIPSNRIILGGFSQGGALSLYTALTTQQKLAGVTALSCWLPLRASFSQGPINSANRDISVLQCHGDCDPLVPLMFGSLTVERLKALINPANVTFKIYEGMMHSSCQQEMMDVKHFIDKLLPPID
Sequence of Platelet-activating factor acetylhydrolase 2, cytoplasmic (Mus musculus) (Q8VDG7 whole entry, looked up): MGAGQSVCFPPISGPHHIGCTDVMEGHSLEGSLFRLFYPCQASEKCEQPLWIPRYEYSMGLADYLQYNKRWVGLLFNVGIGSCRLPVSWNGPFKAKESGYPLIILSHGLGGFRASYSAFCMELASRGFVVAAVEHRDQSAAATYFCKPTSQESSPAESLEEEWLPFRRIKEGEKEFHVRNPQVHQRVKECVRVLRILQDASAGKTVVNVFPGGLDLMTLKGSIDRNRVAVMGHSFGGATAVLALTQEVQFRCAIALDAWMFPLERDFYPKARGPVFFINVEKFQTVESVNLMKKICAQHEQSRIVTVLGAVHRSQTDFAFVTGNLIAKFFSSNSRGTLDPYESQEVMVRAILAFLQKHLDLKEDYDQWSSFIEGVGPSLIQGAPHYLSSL

Q: Which remaining activity ratio (inhibitor/DMSO) (AADACL1) does the source give for `COc1ccc(N2CCN(C(=O)c3cc4c(s3)-c3ccccc3S(=O)(=O)C4)CC2)cc1` here?
A: The remaining activity ratio (inhibitor/DMSO) was 1.46 (inactive).

Q: What about the remaining activity ratio (inhibitor/DMSO) (ABHD12) of the same molecule?
A: Its remaining activity ratio (inhibitor/DMSO) is 1.21 (inactive).

Q: What about the remaining activity ratio (inhibitor/DMSO) (ACOT1) of the same molecule?
A: The remaining activity ratio (inhibitor/DMSO) was 1.23 (inactive).

Q: And the remaining activity ratio (inhibitor/DMSO) (ACOT2)?
A: The remaining activity ratio (inhibitor/DMSO) was 1.25 (inactive).

Q: What about the remaining activity ratio (inhibitor/DMSO) (APEH) of the same molecule?
A: Its remaining activity ratio (inhibitor/DMSO) is 1.11 (inactive).

Q: What about the remaining activity ratio (inhibitor/DMSO) [1] of the same molecule?
A: The remaining activity ratio (inhibitor/DMSO) was 1.08 (inactive).

Q: What about the remaining activity ratio (inhibitor/DMSO) (DPP4) of the same molecule?
A: The remaining activity ratio (inhibitor/DMSO) was 1.17 (inactive).

Q: And the remaining activity ratio (inhibitor/DMSO) (DPP8)?
A: Its remaining activity ratio (inhibitor/DMSO) is 1.1 (inactive).

Q: What about the remaining activity ratio (inhibitor/DMSO) (DPP9) of the same molecule?
A: Its remaining activity ratio (inhibitor/DMSO) is 1.12 (inactive).

Q: What about the remaining activity ratio (inhibitor/DMSO) (ESD) of the same molecule?
A: Its remaining activity ratio (inhibitor/DMSO) is 1.24 (inactive).

Q: And the remaining activity ratio (inhibitor/DMSO) (FAAH)?
A: The remaining activity ratio (inhibitor/DMSO) was 1.25 (inactive).

Q: What about the remaining activity ratio (inhibitor/DMSO) (FASN) of the same molecule?
A: The remaining activity ratio (inhibitor/DMSO) was 1.14 (inactive).

Q: What about the remaining activity ratio (inhibitor/DMSO) (LIPE) of the same molecule?
A: The remaining activity ratio (inhibitor/DMSO) was 0.88 (inactive).

Q: What about the remaining activity ratio (inhibitor/DMSO) (LYPLA2) of the same molecule?
A: The remaining activity ratio (inhibitor/DMSO) was 0.01.

Q: What about the remaining activity ratio (inhibitor/DMSO) [2] of the same molecule?
A: Its remaining activity ratio (inhibitor/DMSO) is 1.06 (inactive).

Q: What about the remaining activity ratio (inhibitor/DMSO) (PAFAH1B2) of the same molecule?
A: The remaining activity ratio (inhibitor/DMSO) was 1.23 (inactive).

Q: What about the remaining activity ratio (inhibitor/DMSO) (PAFAH1B3) of the same molecule?
A: The remaining activity ratio (inhibitor/DMSO) was 1.09 (inactive).

Q: And the remaining activity ratio (inhibitor/DMSO) (PNPLA6)?
A: The remaining activity ratio (inhibitor/DMSO) was 1.03 (inactive).

Q: What about the remaining activity ratio (inhibitor/DMSO) (PNPLA7) of the same molecule?
A: The remaining activity ratio (inhibitor/DMSO) was 1.12 (inactive).

Q: What about the remaining activity ratio (inhibitor/DMSO) (PPME1) of the same molecule?
A: Its remaining activity ratio (inhibitor/DMSO) is 1.34 (inactive).

Q: What about the remaining activity ratio (inhibitor/DMSO) (PRCP) of the same molecule?
A: Its remaining activity ratio (inhibitor/DMSO) is 1.56 (inactive).

Q: What about the remaining activity ratio (inhibitor/DMSO) [3] of the same molecule?
A: Its remaining activity ratio (inhibitor/DMSO) is 1.14 (inactive).

Q: And the remaining activity ratio (inhibitor/DMSO) [4]?
A: Its remaining activity ratio (inhibitor/DMSO) is 1.12 (inactive).

Q: What about the remaining activity ratio (inhibitor/DMSO) (SEC23IP) of the same molecule?
A: Its remaining activity ratio (inhibitor/DMSO) is 1.53 (inactive).

Q: And the remaining activity ratio (inhibitor/DMSO) (TPP2)?
A: Its remaining activity ratio (inhibitor/DMSO) is 1.2 (inactive).
